Experimental data: US10493077B2, “Fused imidazo-piperidine JAK inhibitor compound” (THERAVANCE BIOPHARMA R&D IP, LLC, priority 2017, dated 2019)

Target: T1, CDK7 (Homo sapiens, UniProt P50613)
T1 construct: made in house; host or cells: T7 phage in E. coli (BL21-derived) or HEK-293
Assay: Kinome screen, CDK7
Type: binding
Settings: screened at 1 μM
Procedure: Kinase-tagged T7 phage strains were grown in parallel in 24-well blocks in an E. coli host derived from the BL21 strain. E. coli were grown to log-phase and infected with T7 phage from a frozen stock (multiplicity of infection=0.4) and incubated with shaking at 32° C. until lysis (90-150 minutes). The lysates were centrifuged (6,000×g) and filtered (0.2 μm) to remove cell debris. The remaining kinases were produced in HEK-293 cells and subsequently tagged with DNA for qPCR detection.
Streptavidin-coated magnetic beads were treated with biotinylated small molecule ligands for 30 minutes at room temperature to generate affinity resins for kinase assays. The liganded beads were blocked with excess biotin and washed with blocking buffer (SeaBlock (Pierce), 1% BSA, 0.05% Tween 20, 1 mM DTT) to remove unbound ligand and to reduce non-specific phage binding. […] Test compounds were prepared as 40× stocks in 100% DMSO and directly diluted into the assay. All reactions were performed in polypropylene 384-well plates in a final volume of 0.04 ml. […] The beads were then re-suspended in elution buffer (1×PBS, 0.05% Tween 20, 0.5 μM non-biotinylated affinity ligand) and incubated at room temperature with shaking for 30 minutes. The kinase concentration in the eluates was measured by qPCR.

T1 sequence (P50613 whole entry): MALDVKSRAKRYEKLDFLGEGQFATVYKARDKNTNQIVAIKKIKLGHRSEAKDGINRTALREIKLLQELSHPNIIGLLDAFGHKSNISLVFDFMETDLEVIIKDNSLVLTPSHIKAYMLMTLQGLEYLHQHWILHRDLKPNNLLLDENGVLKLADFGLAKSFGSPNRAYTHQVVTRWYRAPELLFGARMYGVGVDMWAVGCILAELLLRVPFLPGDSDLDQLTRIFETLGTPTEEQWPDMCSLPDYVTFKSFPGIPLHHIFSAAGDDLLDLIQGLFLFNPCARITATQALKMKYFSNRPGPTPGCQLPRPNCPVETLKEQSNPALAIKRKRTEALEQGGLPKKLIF

Q: For CCc1cc(O)c(F)cc1-c1cc(F)c2c(-c3nc4c([nH]3)CCN(C(=O)CN3CCOCC3)C4)n[nH]c2c1 [Compound 1, 1-(2-(6-(2-ethyl-5-fluoro-4-hydroxyphenyl)-4-fluoro-1H-indazol-3-yl)-1,4,6,7-tetrahydro-5H-imidazo[4,5-c]pyridin-5-yl)-2-morpholinoethan-1-one], which inhibition at 1 µM is on record?
A: 74%
